According to patent US8815909B2, “Diaminocyclohexane compounds and uses thereof” (Bristol-Myers Squibb Company, priority 2011, dated 2014):
Where a name gives a salt, the structure may show the parent alone.

Biological target: T1, human Y4 receptor (Homo sapiens, UniProt P50391)
T1 construct: expressed in transfected cells
Assay: NPY4 cAMP HTRF Agonist Assay (inhibitory cAMP assay, Gi activation by Y4 agonism)
Assay type: cell-based
Conditions: TABLE 2, R2 is Phenyl-CN; read-out: hY4 CAMP EC50
Summary of the method: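 CHO cells stably expressing human Y4, 5000/well, exposed to compound with forskolin and IBMX in PBS for 30 min at room temperature. Gi-mediated inhibition of cAMP then measured by HTRF after 1 h with d2-conjugate and anti-cAMP cryptate.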

T1 sequence (P50391 whole entry): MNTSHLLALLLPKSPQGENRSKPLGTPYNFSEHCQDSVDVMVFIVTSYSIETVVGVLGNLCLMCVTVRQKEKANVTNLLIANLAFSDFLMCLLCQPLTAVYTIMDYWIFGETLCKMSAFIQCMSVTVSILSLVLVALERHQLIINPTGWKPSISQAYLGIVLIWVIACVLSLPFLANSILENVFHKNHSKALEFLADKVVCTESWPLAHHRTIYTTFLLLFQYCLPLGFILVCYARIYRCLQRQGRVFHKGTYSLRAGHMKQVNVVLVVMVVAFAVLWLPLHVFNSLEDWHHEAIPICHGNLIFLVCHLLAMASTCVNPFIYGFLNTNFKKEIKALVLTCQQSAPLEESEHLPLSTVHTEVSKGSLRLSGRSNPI

| EC50 [nM] | SMILES |
| --- | --- |
| 537 | N#Cc1ccc(N2CCC[C@H](N[C@@H]3CCCC[C@H]3Nc3cc(-c4cccc(C(F)(F)F)c4)ccn3)C2)cc1 [Example 249] |
| 15 | N#Cc1ccc(N2CCC[C@H](N[C@@H]3CCCC[C@H]3Nc3cc(-c4ccco4)ccn3)C2)cc1 [Example 247] |
| 100 | CC(=O)c1cccc(-c2ccnc(N[C@@H]3CCCC[C@H]3N[C@H]3CCCN(c4ccc(C#N)cc4)C3)c2)c1 [Example 257] |
| 2 | N#Cc1ccc(N2CCC[C@H](N[C@@H]3CCCC[C@H]3Nc3ncc(-c4cccc(C(N)=O)c4)o3)C2)cc1 [Example 265] |
| 70 | CC(=O)c1ccccc1-c1ccnc(N[C@@H]2CCCC[C@H]2N[C@H]2CCCN(c3ccc(C#N)cc3)C2)c1 [Example 253] |
| 120 | N#Cc1ccc(N2CCC[C@H](N[C@@H]3CCCC[C@H]3Nc3cc(-c4ccccc4O)ccn3)C2)cc1 [Example 276] |
| 9 | N#Cc1ccc(N2CCC[C@H](N[C@@H]3CCCC[C@H]3Nc3cc(-c4cccc(N)n4)ccn3)C2)cc1 [Example 237] |
| 83 | N#Cc1ccc(N2CCC[C@H](N[C@@H]3CCCC[C@H]3Nc3cc(-c4cccc5cn[nH]c45)ccn3)C2)cc1 [Example 209] |
| 602 | CS(=O)(=O)NCc1ccc(-c2ccnc(N[C@@H]3CCCC[C@H]3N[C@H]3CCCN(c4ccc(C#N)cc4)C3)c2)cc1 [Example 243] |
| 302 | N#Cc1ccc(N2CCC[C@H](N[C@@H]3CCCC[C@H]3Nc3cc(-c4ccc(CO)cc4)ccn3)C2)cc1 [Example 218] |
| 774 | N#Cc1ccc(N2CCC[C@H](N[C@@H]3CCCC[C@H]3Nc3cn(-c4ccc(OC(F)(F)F)cc4)nn3)C2)cc1 [Example 202] |
| 24 | CS(=O)(=O)NCc1cccc(-c2ccnc(N[C@@H]3CCCC[C@H]3N[C@H]3CCCN(c4ccc(C#N)cc4)C3)c2)c1 [Example 278] |
| 12 | N#Cc1ccc(N2CCC[C@H](N[C@@H]3CCCC[C@H]3Nc3cc(-c4cccc(N)c4)ccn3)C2)cc1 [Example 279] |

Same assay, conditions: TABLE 4, R2 is Pyridinyl-CN; read-out: hY4 CAMP EC50

| EC50 [nM] | SMILES |
| --- | --- |
| 7 | N#Cc1cc(N2CCC[C@H](N[C@@H]3CCCC[C@H]3Nc3ncc(-c4ccc(OC(F)(F)F)cc4)o3)C2)ccn1 [Example 307] |
| 221 | N#Cc1ccc(N2C[C@@H]3C[C@H](N[C@@H]4CCCC[C@H]4Nc4ncc(-c5cccc(C(N)=O)c5)o4)[C@H]2C3)cn1 [Example 303] |
| 15 | N#Cc1ccc(N2CCCC(N[C@@H]3CCCC[C@H]3Nc3ncc(-c4ccc(OC(F)(F)F)cc4)o3)C2)nc1 (stereo partly drawn) [Example 315] |

Same assay, conditions: TABLE 5, R2 is Pyridinyl-CF3; read-out: hY4 CAMP EC50

| EC50 [nM] | SMILES |
| --- | --- |
| 1 | C[C@]1(N[C@@H]2CCCC[C@H]2Nc2ncc(-c3cccc(C(N)=O)c3)o2)CCCN(c2ccc(C(F)(F)F)cn2)C1 [Example 329] |

Same assay, conditions: human Y4 receptor, cAMP; read-out: hY4 CAMP EC50

| EC50 [nM] | SMILES |
| --- | --- |
| 55 | NC(=O)c1cccc(-c2cnc(N[C@@H]3CCCC[C@H]3N[C@H]3CCCN(c4ccc(F)cc4)C3)o2)c1 [Example 461] |
| 101 | NC(=O)c1cccc(-c2cnc(N[C@@H]3CCCC[C@H]3N[C@H]3CCCN(c4ccc(-n5cncn5)cc4)C3)o2)c1 [Example 500] |
| 4 | NC(=O)c1cccc(-c2ccnc(N[C@@H]3CCCC[C@H]3N[C@H]3CCCN(c4ccc(-c5noc(C6CC6)n5)cn4)C3)c2)c1 [Example 451] |
| 82 | FC(F)(F)Oc1ccc(-c2cnc(N[C@@H]3CCCC[C@H]3N[C@H]3C[C@@H]4C[C@H]3N(c3cc(Cl)ncn3)C4)o2)cc1 [Example 510] |
| 4 | CNC(=O)c1cccc(-c2cnc(N[C@@H]3CCCC[C@H]3N[C@H]3CCCN(c4ccc5nc(C)nn5c4)C3)o2)c1 [Example 496] |
| 17 | Cc1nnc(-c2ccc(N3CCCC(N[C@@H]4CCCC[C@H]4Nc4cc(-c5cccc(OC(F)(F)F)c5)ccn4)C3)cc2)o1 (stereo partly drawn) [Example 358] |
| 79 | NC(=O)c1cccc(-c2ccnc(N[C@@H]3CCCC[C@H]3N[C@H]3CCCN(c4cnc(C(F)(F)F)cn4)C3)c2)c1 [Example 473] |
| 49 | C[C@]1(N[C@@H]2CCCC[C@H]2Nc2ncc(-c3cccc(C(N)=O)c3)o2)CCCN(c2cnc(C#N)cn2)C1 [Example 476] |
| 11 | COC(=O)Nc1cccc(-c2ccnc(N[C@@H]3CCCC[C@H]3N[C@H]3CCCN(c4ccc(-c5cncnc5)cc4)C3)c2)c1 [Example 515] |
| 78 | O=C(NC1CC1)c1cccc(-c2cnc(N[C@@H]3CCCC[C@H]3N[C@H]3CCCN(c4ccc5ncnn5c4)C3)o2)c1 [Example 486] |

Same assay, conditions: human Y4 stable CHO clonal cells, forskolin + IBMX; read-out: NPY4 cAMP HTRF Agonist Assay EC50

| EC50 [nM] | SMILES |
| --- | --- |
| 33 | FC(F)(F)Oc1ccc(-c2cnc(N[C@@H]3CCCC[C@H]3N[C@H]3CCCN(c4ccc(I)cc4)C3)o2)cc1 [Example 93, (1R,2R)—N1-((S)-1-(4-Iodophenyl)piperidin-3-yl)-N2-(5-(4-(trifluoromethoxy)phenyl)oxazol-2-yl)cyclohexane-1,2-diamine bis-trifluoroacetate] |
| 8 | O=[N+]([O-])c1ccc(N2CCC[C@H](N[C@@H]3CCCC[C@H]3Nc3ncc(-c4ccccc4)s3)C2)cc1 [Example 26] |
| 69 | O=[N+]([O-])c1ccc(N2CCC[C@H](N[C@@H]3CCCC[C@H]3Nc3nc4ccccc4o3)C2)cc1 [Example 3, (1R,2R)—N1-(Benzo[d]oxazol-2-yl)-N2-((S)-1-(4-nitrophenyl)piperidin-3-yl)cyclohexane-1,2-diamine] |
| 174 | FC(F)(F)Oc1ccc(-c2cnc(N[C@@H]3CCCC[C@H]3N[C@H]3CCCN(c4ccc(-n5cccn5)cc4)C3)o2)cc1 [Example 63, (1R,2R)—N1-((S)-1-(4-(1H-Pyrazol-1-yl)phenyl)piperidin-3-yl)-N2-(5-(4-(trifluoromethoxy)phenyl)oxazol-2-yl)cyclohexane-1,2-diamine trifluoroacetate] |
| 25 | N#Cc1ccc(N2CCC[C@H](N[C@@H]3CCCC[C@H]3Nc3ncc(-c4ccccc4)o3)C2)cc1 [Example 57, 4-((S)-3-((1R,2R)-2-(5-Phenyloxazol-2-ylamino)cyclohexylamino)piperidin-1-yl)benzonitrile] |
| 26 | O=[N+]([O-])c1ccc(N2CCC[C@H](N[C@@H]3CCCC[C@H]3Nc3ncc(-c4ccc(F)c(F)c4)o3)C2)cc1 [Example 10, (1R,2R)—N1-(5-(3,4-Difluorophenyl)oxazol-2-yl)-N2-((S)-1-(4-nitrophenyl)piperidin-3-yl)cyclohexane-1,2-diamine] |
| 62 | Cc1cnn(-c2ccc(N3CCC[C@H](N[C@@H]4CCCC[C@H]4Nc4nccc(-c5ccccc5)n4)C3)cc2)c1 [Example 65, (1R,2R)—N1-((S)-1-(4-(4-Methyl-1H-pyrazol-1-yl)phenyl)piperidin-3-yl)-N2-(4-phenylpyrimidin-2-yl)cyclohexane-1,2-diamine bis-trifluoroacetate] |
| 4 | CCOC(=O)Nc1cccc(-c2cnc(N[C@@H]3CCCC[C@H]3N[C@H]3CCCN(c4cnc(C(F)(F)F)nc4)C3)o2)c1 [Example 107, Ethyl (3-(2-(((1R,2R)-2-(((S)-1-(2-(trifluoromethyl)pyrimidin-5-yl)piperidin-3-yl)amino)cyclohexyl)amino)oxazol-5-yl)phenyl)carbamate] |
| 71 | O=[N+]([O-])c1ccc(N2CCC[C@H](N[C@@H]3CCCC[C@H]3Nc3cc(-c4cccc(OC(F)(F)F)c4)ccn3)C2)cc1 [Example 23, (1R,2R)—N1-((S)-1-(4-Nitrophenyl)piperidin-3-yl)-N2-(4-(3-(trifluoromethoxy)phenyl)pyridin-2-yl)cyclohexane-1,2-diamine] |
| 14 | O=[N+]([O-])c1ccc(N2CCC[C@H](N[C@@H]3CCCC[C@H]3Nc3cc(-c4ccccc4)ccn3)C2)cc1 [Example 25, (1R,2R)—N1-((S)-1-(4-Nitrophenyl)piperidin-3-yl)-N2-(4-phenylpyridin-2-yl)cyclohexane-1,2-diamine] |
| 83 | Fc1cc(N2CCC[C@H](N[C@@H]3CCCC[C@H]3Nc3ncc(-c4ccc(OC(F)(F)F)cc4)o3)C2)ccc1C(F)(F)F [Example 73, (1R,2R)—N1-((S)-1-(3-Fluoro-4-(trifluoromethyl)phenyl)piperidin-3-yl)-N2-(5-(4-(trifluoromethoxy)phenyl)oxazol-2-yl)cyclohexane-1,2-diamine bis-trifluoroacetate] |
| 107 | N#Cc1cnc(N2CCC[C@H](N[C@@H]3CCCC[C@H]3Nc3ncc(-c4ccccc4)o3)C2)nc1 [Example 82, 2-((S)-3-((1R,2R)-2-(5-Phenyloxazol-2-ylamino)cyclohexylamino)piperidin-1-yl)pyrimidine-5-carbonitrile] |

Same assay, conditions: second TABLE 1, R2 is Phenyl-CF3; read-out: hY4 CAMP EC50

| EC50 [nM] | SMILES |
| --- | --- |
| 2 | CCOC(=O)Nc1cccc(-c2ccnc(N[C@@H]3CCCC[C@H]3N[C@H]3CCCN(c4ccc(C(F)(F)F)cc4)C3)c2)c1 [Example 136] |
| 234 | CN(C)C(=O)c1cccc(-c2cnc(N[C@@H]3CCCC[C@H]3N[C@H]3CCCN(c4ccc(C(F)(F)F)cc4)C3)o2)c1 [Example 123] |
| 36 | OC1(c2cccc(-c3cnc(N[C@@H]4CCCC[C@H]4N[C@H]4CCCN(c5ccc(C(F)(F)F)cc5)C4)o3)c2)CC1 [Example 154] |
| 153 | FC(F)(F)c1ccc(N2CCC[C@H](N[C@@H]3CCCC[C@H]3Nc3cc(-c4cccc(C5CCCN5)c4)ccn3)C2)cc1 (stereo partly drawn) [Example 183] |
| 235 | CC(C)(C)c1cccc(-c2ccnc(N[C@@H]3CCCC[C@H]3N[C@H]3CCCN(c4ccc(C(F)(F)F)cc4)C3)c2)c1 [Example 155] |
| 13 | CC(C)OC(=O)Nc1cccc(-c2ccnc(N[C@@H]3CCCC[C@H]3N[C@H]3CCCN(c4ccc(C(F)(F)F)cc4)C3)c2)c1 [Example 134] |
| 31 | OCCCc1cccc(-c2ccnc(N[C@@H]3CCCC[C@H]3N[C@H]3CCCN(c4ccc(C(F)(F)F)cc4)C3)c2)c1 [Example 153] |
| 8 | O=C1OCCN1c1cccc(-c2cnc(N[C@@H]3CCCC[C@H]3N[C@H]3CCCN(c4ccc(C(F)(F)F)cc4)C3)o2)c1 [Example 133] |
| 67 | COC(=O)c1cccc(-c2cnc(N[C@@H]3CCCC[C@H]3N[C@H]3CCCN(c4ccc(C(F)(F)F)cc4)C3)o2)c1 [Example 115] |
